#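 Test compounds were applied to cells in 96-well plates for 48 hours at 5 doses. TGI denotes the concentration required for complete inhibition of growth.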
# Tests used:
# Experiment in all cases: growth of human tumour cells (NCI), 48 h
# A498 renal = system: A498 renal
# DU-145 prostate = system: DU-145 prostate
# HL-60(TB) leukemia = system: HL-60(TB) leukemia
# KM20L2 colon = system: KM20L2 colon
# LOX IMVI melanoma = system: LOX IMVI melanoma
# M14 melanoma = system: M14 melanoma
# NCI-H460 lung = system: NCI-H460 lung
# SK-MEL-5 melanoma = system: SK-MEL-5 melanoma
# SNB-19 CNS = system: SNB-19 CNS
Structure (SMILES),TGI (A498 renal) [µM],TGI (DU-145 prostate) [µM],TGI (HL-60(TB) leukemia) [µM],TGI (KM20L2 colon) [µM],TGI (LOX IMVI melanoma) [µM],TGI (M14 melanoma) [µM],TGI (NCI-H460 lung) [µM],TGI (SK-MEL-5 melanoma) [µM],TGI (SNB-19 CNS) [µM]
COc1cc2c(cc1OC)C(SC)C(=O)N(Cc1cccc(OC)c1OC)CC2 (configuration not stated),> 54.9,> 23,5.63,> 100,> 83.3,26.5,28.8,9.52,> 100
Cc1cc2c(cc1C)[n+](=O)c(C(=O)/C=C/c1ccccc1[N+](=O)[O-])c(C)n2[O-],91.8,> 100,> 100,> 100,> 100,> 100,> 100,> 100,42.3
O=c1c2ccccc2n2cnc3ccc(NCCNCCO)c1c32,6.96,3.31,18.5,12.1,2.8,8.07,7.58,5.4,22.6

# Source: PubChem BioAssay (NCI)
